The results in this text go back to paper PMC9062259, “Mammalian Ddi2 is a shuttling factor containing a retroviral protease domain that influences binding of ubiquitylated proteins and proteasomal degradation” (The Journal of Biological Chemistry, 2022).

The EC50 is the concentration giving half of the maximal effect.

The target of one data set is T1, Ddi2 (Homo sapiens, UniProt Q5TDH0).
T1 construct: His6-Ddi2
T1 sequence (Q5TDH0 1-399): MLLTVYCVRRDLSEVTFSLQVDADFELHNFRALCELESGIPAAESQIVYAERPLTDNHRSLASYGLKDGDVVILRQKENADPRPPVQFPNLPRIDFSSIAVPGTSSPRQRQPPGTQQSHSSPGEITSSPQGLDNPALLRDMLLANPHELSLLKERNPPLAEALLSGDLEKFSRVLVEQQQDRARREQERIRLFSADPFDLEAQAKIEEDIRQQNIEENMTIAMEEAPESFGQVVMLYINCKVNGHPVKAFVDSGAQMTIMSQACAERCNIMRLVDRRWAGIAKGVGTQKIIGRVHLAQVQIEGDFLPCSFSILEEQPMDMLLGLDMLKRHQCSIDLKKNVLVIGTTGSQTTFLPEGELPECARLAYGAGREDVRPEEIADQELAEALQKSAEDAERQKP
In words: Inhibition of cleavage of fluorescently labeled ubiquitylated NeD-sfGFP by purified His6-Ddi2 (SDS-PAGE, fluorescence imaging). In kind it is biochemical.

Data set [1] deals with the molecule itself. Kind of data set: SEC; His-Ddi2 after Ni-NTA on a Superdex 16/60 column in 25 mM Hepes-KOH pH 8, 40 mM potassium acetate, 10% glycerol, 1 mM DTT. Background: In gel filtration, larger molecules generally elute earlier.

The molecule `Cc1c(O)cccc1C(=O)N[C@@H](CSc1ccccc1)[C@H](O)CN1C[C@H]2CCCC[C@H]2C[C@H]1C(=O)NC(C)(C)C` [nelfinavir] registered an EC50 at Ddi2 of around 40 µM.

B1: His6-Ddi2 (natural protein, human, UniProt Q5TDH0 1-399, looked up)
chain: MLLTVYCVRRDLSEVTFSLQVDADFELHNFRALCELESGIPAAESQIVYAERPLTDNHRSLASYGLKDGDVVILRQKENADPRPPVQFPNLPRIDFSSIAVPGTSSPRQRQPPGTQQSHSSPGEITSSPQGLDNPALLRDMLLANPHELSLLKERNPPLAEALLSGDLEKFSRVLVEQQQDRARREQERIRLFSADPFDLEAQAKIEEDIRQQNIEENMTIAMEEAPESFGQVVMLYINCKVNGHPVKAFVDSGAQMTIMSQACAERCNIMRLVDRRWAGIAKGVGTQKIIGRVHLAQVQIEGDFLPCSFSILEEQPMDMLLGLDMLKRHQCSIDLKKNVLVIGTTGSQTTFLPEGELPECARLAYGAGREDVRPEEIADQELAEALQKSAEDAERQKP
notes: Ddi2, human, from a pET16b plasmid (gift from Klara Saskova); Collected from gel filtration at a molecular weight consistent with dimerization; also called His-Ddi2; purified Ddi2; source: E. coli BL21 RIL (DE3) Codon Plus, purified (Ni-NTA, Superdex gel filtration)
Take B1: the binding result in data set [1] is given as “binds”.
